According to patent US12649746B2, “Ketorolaco derivative, pharmaceutical composition and preparation method therefor and use thereof” (NANJING HERON PHARMACEUTICAL SCIENCE AND TECHNOLOGY CO., …, priority 2020, dated 2026):

What was measured:
[1] = Stability study of levorotatory enantiomer of compounds in solvent (MCT); format: physicochemical; conditions: MCT solution; for Isomer (%): dextrorotatory form
Method: 2. Test method: the samples were prepared according to Table 2, wherein each sample was dispensed into 10 vials according to the lofting volume, and the samples were lofted according to Table 3.
4. The related substance was determined according to high performance liquid chromatography (General Chapter 0512, China Pharmacopoeia, 2015 Edition).
(1) Chromatographic conditions: the chromatography column was Agilent ZORBAX SB-C8, 4.6 mm×250 mm, 5 μm, and 0.1% phosphoric acid solution-acetonitrile (50:50) was used as a mobile phase; the detection wavelength was […]; the flow rate was 1.0 mL/min; the column temperature was 40° C., and linear gradient elution was performed according to the following table;
(§1) (2) Determination method: an appropriate amount of the product was weighed precisely, a diluent (absolute ethanol) was added and shaken to dissolve, and quantitatively diluted to give a solution containing 0.4 mg per 1 mL, the solution was […] by vortex for 30 s, and filtered with PTFE filter membrane (0.22 μm, JINTENG), and the filtrate was collected as a test sample solution. 10 μL of the solution was weighed precisely and injected into a liquid chromatograph, and a chromatogram was recorded; if an impurity peak existed in the chromatogram of the test sample solution, calculation was performed according to a peak area normalization method to give the target product.
5. Isomer determination was performed according to high performance liquid chromatography (General Chapter 0512, China Pharmacopoeia, 2015 Edition).
(1) Chromatographic conditions: cellulose-tris(3,5-dimethylphenylcarbamate)silica gel was used as filler (Chiralcel OD-H, 250×4.6 mm, 5 μm); n-hexane-isopropanol (90:10) was used as a mobile phase, and isocratic elution was performed for 25 min at a flow rate of 1.0 mL/min; the column temperature was 35° C.; the detection wavelength was 310 nm.
as §1, with “(n-hexane-isopropanol (90:10))” for “(absolute ethanol)”, “about 1.0” for “0.4”, “20” for “10”, “isomer” for “impurity”

[2] = By-product toxicity test (metabolic byproducts in the human body)
[3] = High temperature stability study of compounds (60° C.); format: physicochemical; conditions: in the dark; for Ketorolac (%): related substance
Method: Test protocol: the compounds prepared in the present disclosure were placed in a colorless and transparent vial, placed in the dark at a high temperature (60° C.), and were sampled for day 0, day 5 and day 10, respectively, and the purity of the compounds and the change of the related substance (ketorolac) were determined.

Compound: CCOC(=O)OC(C)OC(=O)[C@H]1CCn2c(C(=O)c3ccccc3)ccc21 (stereo partly drawn) [N12(S)]
- Ketorolac (%) ([1]; 5° C., Day 5): 0.02%
- Purity (%) ([1]; 5° C., Day 5): 99.62%
- Ketorolac (%) ([1]; 5° C., Day 15): 0.02%
- Purity (%) ([1]; 5° C., Day 15): 99.64%
- Ketorolac (%) ([1]; 5° C., Day 30): 0.03%
- Purity (%) ([1]; 5° C., Day 30): 99.55%
- Ketorolac (%) ([1]; 5° C., day 0): 0.02%
- Purity (%) ([1]; 5° C., day 0): 99.65%
- Ketorolac (%) ([1]; 25° C., Day 5): 0.03%
- Purity (%) ([1]; 25° C., Day 5): 99.59%
- Ketorolac (%) ([1]; 25° C., Day 15): 0.04%
- Purity (%) ([1]; 25° C., Day 15): 99.61%
- Ketorolac (%) ([1]; 25° C., Day 30): 0.07%
- Purity (%) ([1]; 25° C., Day 30): 99.49%
- Ketorolac (%) ([1]; 25° C., day 0): 0.02%
- Purity (%) ([1]; 25° C., day 0): 99.65%
- Ketorolac (%) ([1]; 60° C., Day 5): 0.09%
- Purity (%) ([1]; 60° C., Day 5): 99.53%
- Ketorolac (%) ([1]; 60° C., Day 15): 0.23%
- Purity (%) ([1]; 60° C., Day 15): 99.35%
- Ketorolac (%) ([1]; 60° C., Day 30): 0.41%
- Purity (%) ([1]; 60° C., Day 30): 99.05%
- Ketorolac (%) ([1]; 60° C., day 0): 0.02%
- Purity (%) ([1]; 60° C., day 0): 99.65%
- Isomer (%) ([1]; 5° C., Day 5): 3.05%
- Isomer (%) ([1]; 5° C., Day 15): 3.07%
- Isomer (%) ([1]; 5° C., Day 30): 3.06%
- Isomer (%) ([1]; 5° C., day 0): 3.01%
- Isomer (%) ([1]; 25° C., Day 5): 3.04%
- Isomer (%) ([1]; 25° C., Day 15): 3.09%
- Isomer (%) ([1]; 25° C., Day 30): 3.11%
- Isomer (%) ([1]; 25° C., day 0): 3.01%
- Isomer (%) ([1]; 60° C., Day 5): 3.12%
- Isomer (%) ([1]; 60° C., Day 15): 3.1%
- Isomer (%) ([1]; 60° C., Day 30): 3.48%
- Isomer (%) ([1]; 60° C., day 0): 3.01%

Compound: COC(=O)OC(C)OC(=O)C1CCn2c(C(=O)c3ccccc3)ccc21 (centres unmarked) [N13]
- Metabolic by-products in human body ([2]; by the metabolic pathways of the compounds in the human body): Acetaldehyde and methanol
- Toxicity ([2]; toxicity of the metabolic by-products in human body): Methanol is more toxic

Compound: CCOC(=O)OC(CC)OC(=O)[C@H]1CCn2c(C(=O)c3ccccc3)ccc21 (stereo partly drawn) [N15(S)]
- Ketorolac (%) ([1]; 5° C., Day 5): 0.02%
- Purity (%) ([1]; 5° C., Day 5): 99.46%
- Ketorolac (%) ([1]; 5° C., Day 15): 0.02%
- Purity (%) ([1]; 5° C., Day 15): 99.45%
- Ketorolac (%) ([1]; 5° C., Day 30): 0.03%
- Purity (%) ([1]; 5° C., Day 30): 99.38%
- Ketorolac (%) ([1]; 5° C., day 0): 0.03%
- Purity (%) ([1]; 5° C., day 0): 99.48%
- Ketorolac (%) ([1]; 25° C., Day 5): 0.03%
- Purity (%) ([1]; 25° C., Day 5): 99.42%
- Ketorolac (%) ([1]; 25° C., Day 15): 0.03%
- Purity (%) ([1]; 25° C., Day 15): 99.41%
- Ketorolac (%) ([1]; 25° C., Day 30): 0.05%
- Purity (%) ([1]; 25° C., Day 30): 99.33%
- Ketorolac (%) ([1]; 25° C., day 0): 0.03%
- Purity (%) ([1]; 25° C., day 0): 99.48%
- Ketorolac (%) ([1]; 60° C., Day 5): 0.06%
- Purity (%) ([1]; 60° C., Day 5): 99.35%
- Ketorolac (%) ([1]; 60° C., Day 15): 0.17%
- Purity (%) ([1]; 60° C., Day 15): 99.21%
- Ketorolac (%) ([1]; 60° C., Day 30): 0.35%
- Purity (%) ([1]; 60° C., Day 30): 98.92%
- Ketorolac (%) ([1]; 60° C., day 0): 0.03%
- Purity (%) ([1]; 60° C., day 0): 99.48%
- Isomer (%) ([1]; 5° C., Day 5): 4.58%
- Isomer (%) ([1]; 5° C., Day 15): 4.73%
- Isomer (%) ([1]; 5° C., Day 30): 4.62%
- Isomer (%) ([1]; 5° C., day 0): 4.59%
- Isomer (%) ([1]; 25° C., Day 5): 4.58%
- Isomer (%) ([1]; 25° C., Day 15): 4.72%
- Isomer (%) ([1]; 25° C., Day 30): 4.64%
- Isomer (%) ([1]; 25° C., day 0): 4.59%
- Isomer (%) ([1]; 60° C., Day 5): 4.59%
- Isomer (%) ([1]; 60° C., Day 15): 4.75%
- Isomer (%) ([1]; 60° C., Day 30): 4.63%
- Isomer (%) ([1]; 60° C., day 0): 4.59%

Compound: CCC(OC(=O)OC(C)C)OC(=O)[C@H]1CCn2c(C(=O)c3ccccc3)ccc21 (stereo partly drawn) [N16(S)]
- Ketorolac (%) ([1]; 5° C., Day 5): 0.03%
- Purity (%) ([1]; 5° C., Day 5): 99.55%
- Ketorolac (%) ([1]; 5° C., Day 15): 0.02%
- Purity (%) ([1]; 5° C., Day 15): 99.65%
- Ketorolac (%) ([1]; 5° C., Day 30): 0.03%
- Purity (%) ([1]; 5° C., Day 30): 99.52%
- Ketorolac (%) ([1]; 5° C., day 0): 0.02%
- Purity (%) ([1]; 5° C., day 0): 99.71%
- Ketorolac (%) ([1]; 25° C., Day 5): 0.03%
- Purity (%) ([1]; 25° C., Day 5): 99.52%
- Ketorolac (%) ([1]; 25° C., Day 15): 0.03%
- Purity (%) ([1]; 25° C., Day 15): 99.63%
- Ketorolac (%) ([1]; 25° C., Day 30): 0.04%
- Purity (%) ([1]; 25° C., Day 30): 99.48%
- Ketorolac (%) ([1]; 25° C., day 0): 0.02%
- Purity (%) ([1]; 25° C., day 0): 99.71%
- Ketorolac (%) ([1]; 60° C., Day 5): 0.05%
- Purity (%) ([1]; 60° C., Day 5): 99.52%
- Ketorolac (%) ([1]; 60° C., Day 15): 0.12%
- Purity (%) ([1]; 60° C., Day 15): 99.51%
- Ketorolac (%) ([1]; 60° C., Day 30): 0.24%
- Purity (%) ([1]; 60° C., Day 30): 99.27%
- Ketorolac (%) ([1]; 60° C., day 0): 0.02%
- Purity (%) ([1]; 60° C., day 0): 99.71%
- Isomer (%) ([1]; 5° C., Day 5): 2.47%
- Isomer (%) ([1]; 5° C., Day 15): 2.6%
- Isomer (%) ([1]; 5° C., Day 30): 2.58%
- Isomer (%) ([1]; 5° C., day 0): 2.46%
- Isomer (%) ([1]; 25° C., Day 5): 2.47%
- Isomer (%) ([1]; 25° C., Day 15): 2.6%
- Isomer (%) ([1]; 25° C., Day 30): 2.59%
- Isomer (%) ([1]; 25° C., day 0): 2.46%
- Isomer (%) ([1]; 60° C., Day 5): 2.48%
- Isomer (%) ([1]; 60° C., Day 15): 2.61%
- Isomer (%) ([1]; 60° C., Day 30): 2.63%
- Isomer (%) ([1]; 60° C., day 0): 2.46%

Compound: CCOC(=O)OC(OC(=O)C1CCn2c(C(=O)c3ccccc3)ccc21)C(C)C (centres unmarked) [N18]
- Total main peak purity (%) ([3]; Day 0): 94.25%
- Total main peak purity (%) ([3]; Day 5): 92.10%
- Total main peak purity (%) ([3]; Day 10): 91.78%
- Ketorolac (%) ([3]; Day 0): 0.06%
- Ketorolac (%) ([3]; Day 5): 0.18%
- Ketorolac (%) ([3]; Day 10): 0.26%

Compound: CC(C)OC(=O)OC(OC(=O)C1CCn2c(C(=O)c3ccccc3)ccc21)C(C)C (centres unmarked) [N19]
- Total main peak purity (%) ([3]; Day 0): 96.30%
- Total main peak purity (%) ([3]; Day 5): 94.61%
- Total main peak purity (%) ([3]; Day 10): 94.41%
- Ketorolac (%) ([3]; Day 0): 0.07%
- Ketorolac (%) ([3]; Day 5): 0.09%
- Ketorolac (%) ([3]; Day 10): 0.12%
